Measured values: ChEMBL document CHEMBL1135523, “(4R,5S)/(4S,5R)-4,5-Bis(4-hydroxyphenyl)-2-imidazolines: ligands for the estrogen receptor with a novel binding mode” (J Med Chem, 2002)

Legend:
[1] = biological target: Estrogen receptor (Bos taurus) (UniProt Q9XSB5+P49884); experiment: Displacement of 17-beta-[3H]-estradiol from Estrogen receptor of calf uterine cytosol at 20 uM; type: protein assay
[2] = biological target: T1, Estrogen receptor (Homo sapiens, UniProt P03372); experiment: Agonist activity in transcriptional activation assay in MCF-7-2a cells compared to estradiol E2; type: functional, cell-based
T1 sequence (P03372 whole entry): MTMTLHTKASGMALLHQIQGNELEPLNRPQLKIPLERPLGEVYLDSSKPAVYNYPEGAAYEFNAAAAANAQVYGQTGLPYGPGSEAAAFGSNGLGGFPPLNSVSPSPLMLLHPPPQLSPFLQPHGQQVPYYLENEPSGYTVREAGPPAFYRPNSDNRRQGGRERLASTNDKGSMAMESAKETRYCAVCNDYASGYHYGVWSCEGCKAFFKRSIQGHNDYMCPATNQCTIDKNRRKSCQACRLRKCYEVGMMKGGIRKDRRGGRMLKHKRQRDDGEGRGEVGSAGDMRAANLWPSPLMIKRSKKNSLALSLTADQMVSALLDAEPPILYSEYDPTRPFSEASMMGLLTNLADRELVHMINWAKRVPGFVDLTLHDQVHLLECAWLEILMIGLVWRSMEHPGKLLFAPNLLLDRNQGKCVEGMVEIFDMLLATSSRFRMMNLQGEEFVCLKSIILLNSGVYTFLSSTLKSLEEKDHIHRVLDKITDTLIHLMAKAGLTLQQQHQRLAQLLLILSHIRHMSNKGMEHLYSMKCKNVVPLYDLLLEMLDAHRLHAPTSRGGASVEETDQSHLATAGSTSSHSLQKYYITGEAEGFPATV

`Oc1ccc([C@H]2N=CN[C@H]2c2ccc(O)cc2)cc1` gave a Control [1] of 1.7%.

Work on `Oc1ccc([C@@H]2N=CN[C@@H]2c2c(Cl)cc(O)cc2Cl)c(F)c1` yielded an EC50 [2] of 620 nM and a Control [1] of 40.1%.

In the case of `Cc1cc(O)ccc1[C@H]1N=CN[C@H]1c1ccc(O)cc1C`, the Control [1] is reported as 0%.

In the case of `Oc1ccc([C@H]2N=CN[C@H]2c2ccc(O)cc2F)c(F)c1`, the Control [1] is reported as 20.9%.

`Oc1ccc([C@H]2N=CN[C@H]2c2ccc(O)cc2I)c(I)c1` showed an EC50 [2] of 1800 nM and a Control [1] of 42.9%.

`Oc1ccc([C@@H]2N=CN[C@@H]2c2c(Cl)cc(O)cc2Cl)c(Cl)c1` showed an EC50 [2] of 65 nM and a Control [1] of 70.3%.

For `Oc1ccc([C@H]2NC=N[C@H]2c2ccc(O)cc2Cl)c(Cl)c1`, the EC50 [2] was 380 nM and the Control [1] was 44%.
